Molecules are shown by their SMILES.

Sequence of purified human IDO protein (P14902 whole entry P110S/E119G): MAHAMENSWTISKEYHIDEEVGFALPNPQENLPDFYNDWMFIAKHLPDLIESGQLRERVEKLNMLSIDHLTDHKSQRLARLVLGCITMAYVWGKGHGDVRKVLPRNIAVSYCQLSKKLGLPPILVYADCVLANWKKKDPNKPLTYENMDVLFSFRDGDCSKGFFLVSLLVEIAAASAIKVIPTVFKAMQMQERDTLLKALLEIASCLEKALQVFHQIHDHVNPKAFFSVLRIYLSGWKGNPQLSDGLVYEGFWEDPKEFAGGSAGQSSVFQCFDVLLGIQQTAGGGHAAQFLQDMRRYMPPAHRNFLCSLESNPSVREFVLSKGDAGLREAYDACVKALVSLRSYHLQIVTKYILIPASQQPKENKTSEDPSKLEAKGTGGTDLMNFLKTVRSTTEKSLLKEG

The first experiment concerns the target purified human IDO protein (Homo sapiens, UniProt P14902). As to the kind of experiment: Enzymatic IDO assay (kynurenine production, absorbance 480 nm). The following applies: hIDO IC50, Table 15; recombinant human IDO, enzymatic activity.
In general, IC50 refers to the concentration at which inhibition is half-maximal. As to `CC(C)(C)OC(=O)NCC(ON)c1ccccc1` (stereo not shown) [compound 1876, tert-butyl 2-(aminooxy)-2-phenylethylcarbamate], the IC50 is 100 to 1000 µM. The same measure, in the same setting: the value for `NCCC(ON)c1ccccc1` (stereo not shown) [compound 1877, 3-(aminooxy)-3-phenylpropan-1-amine] was 10 to 100 µM; that for `NO[C@@H](CCO)c1ccccc1` [compound 1883, (S)-3-(aminooxy)-3-phenylpropan-1-ol] was 100 to 1000 µM; that for `CC(=O)NCC(ON)c1ccccc1` (stereo not shown) [compound 1899, N-(2-(aminooxy)-2-phenylethyl)acetamide] was 100 to 1000 µM. `NOC(CCC(=O)NC1CCCCC1)c1ccccc1` (stereo not shown) [compound 1901, 4-(aminooxy)-N-cyclohexyl-4-phenylbutanamide]: the half-maximal inhibitory concentration (IC50) is 100 to 1000 µM. As for `CNCC(ON)c1ccccc1` (stereo not shown) [compound 1902, 2-(aminooxy)-N-methyl-2-phenylethanamine], the IC50 lay within 100 to 1000 µM. For `CNCCC(ON)c1ccccc1` (stereo not shown) [compound 1904, 3-(aminooxy)-N-methyl-3-phenylpropan-1-amine], the IC50 is 100 to 1000 µM.

Still in this experiment, the particulars now being: hIDO IC50, Table 16; recombinant human IDO, enzymatic activity.
On to `NO[C@H](Cc1ccccc1)C(=O)O` [compound 1690, (R)-2-(aminooxy)-3-phenylpropanoic acid], for which the IC50 is 100 to 1000 µM.

As for `NOc1ccccc1` [compound 1900, O-phenylhydroxylamine], the IC50 was in the range of 10 to 100 µM.

The same experiment, now with this note: hIDO IC50, recombinant human IDO, enzymatic activity; values reported in ranges.
For `Cc1cccc(CCSC(=S)NCCc2c[nH]c3ccccc23)c1` [compound 20, 3-Methylphenethyl 2-(1H-indol-3-yl)ethylcarbamodithioate], the IC50 fell in the range of 100 to 1000 µM. In the case of `CSC(=S)NCCc1ccncc1` [compound 69, Methyl 2-(pyridin-4-yl)ethylcarbamodithioate], the IC50 was 100 to 1000 µM.

For the molecule `S=C1SCCCN1Cc1ccccc1` [compound 77, 3-Benzyl-1,3-thiazinane-2-thione], the IC50 is 100 to 1000 µM. As for `S=C1OCCN1Cc1ccccc1` [compound 81, 3-Benzyloxazolidine-2-thione], the IC50 fell in the range of 100 to 1000 µM.

Consider `O=C(O)CCn1[nH]c(=O)c2ccccc21` [compound 267, 3-(3-oxo-2,3-dihydro-1H-indazol-1-yl)propanoic acid], for which the IC50 was in the range of 100 to 1000 µM. For the molecule `CCC(CC)C1NC(C(=O)O)Cc2c1[nH]c1ccccc21` (stereo not shown) [compound 525, 1-(pentan-3-yl)-2,3,4,9-tetrahydro-1H-pyrido[3,4-b]indole-3-carboxylic acid], the IC50 lay in the range of 100 to 1000 µM. As to `S=C(NCCCc1c[nH]c2ccccc12)Nc1nccs1` [compound 565, 1-(3-(1H-indol-3-yl)propyl)-3-(thiazol-2-yl)thiourea], the IC50 was 100 to 1000 µM.

With `S=C(NCc1c[nH]c2ccccc12)Nc1nccs1` [compound 568, 1-((1H-indol-3-yl)methyl)-3-(thiazol-2-yl)thiourea], the IC50 fell in the range of 100 to 1000 µM.

For `S=C(NCc1ccc2ccccc2c1)Nc1nccs1` [compound 591, 1-(naphthalen-2-ylmethyl)-3-(thiazol-2-yl)thiourea], the half-inhibitory concentration (IC50) was 100 to 1000 µM.

Turning to `Nc1ccccc1NC(=O)CCc1c[nH]c2ccccc12` [compound 592, N-(2-aminophenyl)-3-(1H-indol-3-yl)propanamide], the IC50 was 100 to 1000 µM. The same measure, in the same setting: the value for `OCCc1c[nH]c2ccccc12` [compound 606, 2-(1H-indol-3-yl)ethanol] was 100 to 1000 µM. Turning to `Oc1ccc(Cc2ccccc2)c2cccnc12` [compound 664, 5-benzylquinolin-8-ol], the IC50 lay within 100 to 1000 µM.

As for `S=C(NCCCc1c[nH]c2ccccc12)c1ccccc1` [compound 673, N-(3-(1H-indol-3-yl)propyl)benzothioamide], the IC50 lay in the range of 100 to 1000 µM.

As to `Oc1noc(O)c1-c1ccccc1` [compound 707, 4-phenylisoxazole-3,5-diol], the IC50 was 100 to 1000 µM. For the molecule `S=C1OCCN1Cc1ccc2ccccc2c1` [compound 786, 3-(Naphthalen-2-ylmethyl)oxazolidine-2-thione], the half-inhibitory concentration (IC50) fell in the range of 100 to 1000 µM.

In the case of `O=C(Cc1ccccc1)NO` [compound 889, N-hydroxy-2-phenylacetamide], the IC50 was in the range of 100 to 1000 µM.

These data come from US20130289083A1, “IDO Inhibitors” (priority 2007, published 2013).
